According to patent US20240316022A1 (TYRA BIOSCIENCES, INC., priority 2021, published 2024):

Legend:
Assay in all cases: Kinase binding assay (kinase-tagged T7 phage, qPCR), Kd
FGFR2 = target: T1, FGFR2 (Homo sapiens, UniProt P21802); conditions: read-out: FGFR2 (Kd nM)
T1 construct: made in house; host or cells: E. coli derived from BL21, infected with T7 phage
Description: (§1) Kinase-tagged T7 phage strains were prepared in an E. coli host derived from the BL21 strain. E. coli were grown to log-phase and infected with T7 phage and incubated with shaking at 32° C. until lysis. The lysates were centrifuged and filtered to remove cell debris. […] The liganded beads were blocked with excess biotin and washed with blocking buffer SeaBlock (Pierce), 1% BSA, 0.05% Tween 20, 1 mM DTT to remove unbound ligand and to reduce non-specific binding.
(§2) Kds were determined using an 11-point 3-fold compound dilution series with three DMSO control points. […] The compounds were then diluted directly into the assays such that the final concentration of DMSO was 0.9%. All reactions performed in polypropylene 384-well plate. Each was a final volume of 0.02 ml. […] The kinase concentration in the eluates was measured by qPCR.
(§3) Binding constants were calculated with a standard dose-response curve using the Hill equation: […]
(§4) The Hill Slope was set to −1. Curves were fitted using a non-linear least square fit with the Levenberg-Marquardt algorithm.

FGFR1 = target: T2, FGFR1 (Homo sapiens, UniProt P11362); conditions: read-out: FGFR1 (Kd nM)
T2 construct: made in house; host or cells: E. coli derived from BL21, infected with T7 phage
Description: as §1, §2, §3, §4

FGFR3 = target: T3, FGFR3 (Homo sapiens, UniProt P22607); conditions: read-out: FGFR3 (Kd nM)
T3 construct: made in house; host or cells: E. coli derived from BL21, infected with T7 phage
Description: (§5) Kinase-tagged T7 phage strains were prepared in an E. coli host derived from the BL21 strain. E. coli were grown to log-phase and infected with T7 phage and incubated with shaking at 32° C. until lysis. The lysates were centrifuged and filtered to remove cell debris. Streptavidin-coated magnetic beads were treated with biotinylated small molecule ligands for 30 minutes at room temperature to generate affinity resins for kinase assays. The liganded beads were blocked with excess biotin and washed with blocking buffer SeaBlock (Pierce), 1% BSA, 0.05% Tween 20, 1 mM DTT to remove unbound ligand and to reduce non-specific binding. Binding reactions were assembled by combining kinases, liganded affinity beads, and test compounds in 1× binding buffer (20% SeaBlock, 0.17×PBS, 0.05% Tween 20, 6 mM DTT).
(§6) Test compounds were prepared as 111X stocks in 100% DMSO. Kds were determined using an 11-point 3-fold compound dilution series with three DMSO control points. All compounds for Kd measurements are distributed by acoustic transfer (non-contact dispensing) in 100% DMSO. The compounds were then diluted directly into the assays such that the final concentration of DMSO was 0.9%. All reactions performed in polypropylene 384-well plate. Each was a final volume of 0.02 ml. The assay plates were incubated at room temperature with shaking for 1 hour and the affinity beads were washed with wash buffer (1×PBS, 0.05% Tween 20). The beads were then re-suspended in elution buffer (1×PBS, 0.05% Tween 20, 0.5 μM non-biotinylated affinity ligand) and incubated at room temperature with shaking for 30 minutes. The kinase concentration in the eluates was measured by qPCR.
as §3, §4

FGFR4 = target: T4, FGFR4 (Homo sapiens, UniProt P22455); conditions: read-out: FGFR4 (Kd nM)
T4 construct: made in house; host or cells: E. coli derived from BL21, infected with T7 phage
Description: as §5, §6, §3, §4

T2 sequence (P11362 22-822): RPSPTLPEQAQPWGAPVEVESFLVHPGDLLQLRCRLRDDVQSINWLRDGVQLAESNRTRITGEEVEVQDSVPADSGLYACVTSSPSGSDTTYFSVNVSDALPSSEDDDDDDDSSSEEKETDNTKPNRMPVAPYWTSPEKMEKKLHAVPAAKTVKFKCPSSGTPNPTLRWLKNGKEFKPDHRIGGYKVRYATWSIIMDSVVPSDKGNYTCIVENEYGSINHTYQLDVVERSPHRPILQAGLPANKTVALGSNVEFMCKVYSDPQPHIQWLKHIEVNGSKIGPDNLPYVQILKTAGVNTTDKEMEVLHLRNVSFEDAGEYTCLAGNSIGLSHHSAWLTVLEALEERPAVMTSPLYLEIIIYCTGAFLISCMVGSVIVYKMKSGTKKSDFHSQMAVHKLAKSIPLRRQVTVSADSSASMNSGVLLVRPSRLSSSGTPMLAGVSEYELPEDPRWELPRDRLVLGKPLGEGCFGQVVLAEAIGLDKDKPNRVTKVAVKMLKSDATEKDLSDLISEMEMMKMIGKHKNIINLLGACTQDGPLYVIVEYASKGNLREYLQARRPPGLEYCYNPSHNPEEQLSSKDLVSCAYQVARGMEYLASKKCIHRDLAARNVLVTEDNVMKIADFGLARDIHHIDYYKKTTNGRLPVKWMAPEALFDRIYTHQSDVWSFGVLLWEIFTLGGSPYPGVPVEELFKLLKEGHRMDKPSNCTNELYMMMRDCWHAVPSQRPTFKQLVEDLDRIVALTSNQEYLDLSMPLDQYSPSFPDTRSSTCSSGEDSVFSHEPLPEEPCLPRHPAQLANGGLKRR
T1 sequence (P21802 22-821): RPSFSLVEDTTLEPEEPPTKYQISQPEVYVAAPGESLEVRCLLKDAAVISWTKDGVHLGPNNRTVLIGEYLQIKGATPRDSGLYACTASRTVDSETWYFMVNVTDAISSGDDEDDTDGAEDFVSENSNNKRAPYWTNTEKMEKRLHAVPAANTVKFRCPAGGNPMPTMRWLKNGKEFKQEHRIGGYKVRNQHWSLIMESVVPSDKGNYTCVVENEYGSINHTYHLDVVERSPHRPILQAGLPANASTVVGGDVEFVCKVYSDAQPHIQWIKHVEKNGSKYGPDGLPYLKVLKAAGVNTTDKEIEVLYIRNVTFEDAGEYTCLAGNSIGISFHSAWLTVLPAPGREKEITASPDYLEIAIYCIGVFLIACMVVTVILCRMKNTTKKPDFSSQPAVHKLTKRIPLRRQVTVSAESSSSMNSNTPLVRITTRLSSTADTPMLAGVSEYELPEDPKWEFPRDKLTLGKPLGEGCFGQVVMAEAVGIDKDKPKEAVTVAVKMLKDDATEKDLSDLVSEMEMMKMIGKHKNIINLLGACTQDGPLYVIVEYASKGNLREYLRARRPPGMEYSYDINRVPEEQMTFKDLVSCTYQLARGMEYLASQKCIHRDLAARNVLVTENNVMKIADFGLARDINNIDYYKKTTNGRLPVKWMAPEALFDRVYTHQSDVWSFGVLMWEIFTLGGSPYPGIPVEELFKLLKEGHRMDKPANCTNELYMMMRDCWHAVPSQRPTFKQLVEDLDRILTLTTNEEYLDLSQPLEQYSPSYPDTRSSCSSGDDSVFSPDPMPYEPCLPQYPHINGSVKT
T4 sequence (P22455 22-802): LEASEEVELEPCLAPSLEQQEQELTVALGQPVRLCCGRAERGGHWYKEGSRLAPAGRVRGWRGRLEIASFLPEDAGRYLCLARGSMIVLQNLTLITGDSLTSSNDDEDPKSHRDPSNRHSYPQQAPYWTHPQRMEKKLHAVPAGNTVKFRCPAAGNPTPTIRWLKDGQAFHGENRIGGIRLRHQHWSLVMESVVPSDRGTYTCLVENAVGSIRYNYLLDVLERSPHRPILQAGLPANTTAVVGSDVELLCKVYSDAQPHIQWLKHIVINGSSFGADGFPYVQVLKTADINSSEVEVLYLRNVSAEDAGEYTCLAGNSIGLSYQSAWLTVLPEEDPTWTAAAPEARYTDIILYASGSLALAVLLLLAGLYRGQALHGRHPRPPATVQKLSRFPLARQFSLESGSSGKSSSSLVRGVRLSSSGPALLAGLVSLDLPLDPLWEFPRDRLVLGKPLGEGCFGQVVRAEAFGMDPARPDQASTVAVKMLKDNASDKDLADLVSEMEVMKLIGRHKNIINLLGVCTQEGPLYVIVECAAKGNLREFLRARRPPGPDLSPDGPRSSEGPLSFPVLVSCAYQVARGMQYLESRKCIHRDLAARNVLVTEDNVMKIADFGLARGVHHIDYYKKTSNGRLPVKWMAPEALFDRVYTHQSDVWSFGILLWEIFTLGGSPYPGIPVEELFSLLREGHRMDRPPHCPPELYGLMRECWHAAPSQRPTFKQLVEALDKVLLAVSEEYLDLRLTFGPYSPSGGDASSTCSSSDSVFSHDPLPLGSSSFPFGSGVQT
T3 sequence (P22607 23-806): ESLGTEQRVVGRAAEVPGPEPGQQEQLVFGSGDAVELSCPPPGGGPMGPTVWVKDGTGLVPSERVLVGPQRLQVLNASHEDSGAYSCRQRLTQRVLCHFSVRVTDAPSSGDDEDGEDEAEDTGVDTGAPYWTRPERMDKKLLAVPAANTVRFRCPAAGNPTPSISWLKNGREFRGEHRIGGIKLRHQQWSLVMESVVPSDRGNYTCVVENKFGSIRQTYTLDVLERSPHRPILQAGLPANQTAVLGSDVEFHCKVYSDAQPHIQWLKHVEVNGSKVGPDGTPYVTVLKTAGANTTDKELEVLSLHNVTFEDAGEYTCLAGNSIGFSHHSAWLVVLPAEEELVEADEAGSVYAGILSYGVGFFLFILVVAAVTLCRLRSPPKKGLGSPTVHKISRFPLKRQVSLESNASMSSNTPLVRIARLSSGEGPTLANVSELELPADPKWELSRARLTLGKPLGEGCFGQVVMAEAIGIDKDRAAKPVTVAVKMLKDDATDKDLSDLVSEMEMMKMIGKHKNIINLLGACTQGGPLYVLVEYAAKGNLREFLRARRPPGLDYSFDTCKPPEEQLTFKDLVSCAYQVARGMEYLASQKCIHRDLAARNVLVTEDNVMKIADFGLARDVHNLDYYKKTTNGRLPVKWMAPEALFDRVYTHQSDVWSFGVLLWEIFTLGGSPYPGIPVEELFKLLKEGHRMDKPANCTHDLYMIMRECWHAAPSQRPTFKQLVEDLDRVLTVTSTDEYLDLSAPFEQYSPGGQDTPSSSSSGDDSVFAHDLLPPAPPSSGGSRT

Row | Structure (SMILES) | Kd (FGFR2) | Kd (FGFR1) | Kd (FGFR3) | Kd (FGFR4)
1 | Cc1cnnc(C)c1[C@H](C)Oc1ccc2[nH]nc(-c3cc(C#N)cc(N4CC5(CN(C)C5)C4)c3)c2c1 [Example 91, (S)-3-(5-(1-(3,5-dimethylpyridazin-4-yl)ethoxy)-1H-indazol-3-yl)-5-(6-methyl-2,6-diazaspiro[3.3]heptan-2-yl)benzonitrile] | > 1000 nM | > 1000 nM | > 1000 nM | > 1000 nM
2 | Cc1cc2[nH]nc(-c3cnc(O[C@@H]4CCOC4)c(C#N)c3)c2cc1O[C@H](C)c1c(Cl)cncc1Cl [Example 135, 5-(5-((R)-1-(3,5-dichloropyridin-4-yl)ethoxy)-6-methyl-1H-indazol-3-yl)-2-(((R)-tetrahydrofuran-3-yl)oxy)nicotinonitrile] | 0.1 to 100 nM | 0.1 to 100 nM | 0.1 to 100 nM | 0.1 to 100 nM
3 | C[C@@H](Oc1cc2c(-c3cnc4c(c3)N(S(C)(=O)=O)CCO4)n[nH]c2cc1Cl)c1c(Cl)cncc1Cl [Example 145, 7-[6-chloro-5-[(1R)-1-(3,5-dichloro-4-pyridyl)ethoxy]-1H-indazol-3-yl]-1-methylsulfonyl-2,3-dihydropyrido[2,3-b][1,4]oxazine] | > 1000 nM | > 1000 nM | > 1000 nM | 0.1 to 100 nM
4 | COc1c(C)cc(-c2n[nH]c3ccc(O[C@H](C)c4c(C)cnnc4C)cc23)cc1C#N [Example 80, 5-[5-[(1R)-1-(3,5-dimethylpyridazin-4-yl)ethoxy]-1H-indazol-3-yl]-2-methoxy-3-methyl-benzonitrile] | 0.1 to 100 nM | 100 to 250 nM | 0.1 to 100 nM | 0.1 to 100 nM
5 | COCCOc1cc(C#N)cc(-c2n[nH]c3ccc(O[C@H](C)c4c(C)cnnc4C)cc23)c1 [Example 75, 3-[5-[(1R)-1-(3,5-dimethylpyridazin-4-yl)ethoxy]-1H-indazol-3-yl]-5-(2-methoxyethoxy)-benzonitrile] | 100 to 250 nM | 100 to 250 nM | 0.1 to 100 nM | 0.1 to 100 nM
6 | CC(C)OC(=O)Nc1ccc(-c2n[nH]c3ccc(O[C@H](C)c4c(Cl)cncc4Cl)cc23)cn1 [Example 27, isopropyl N-[5-[5-[(1R)-1-(3,5-dichloro-4-pyridyl)ethoxy]-1H-indazol-3-yl]-2-pyridyl]carbamate] | 250 to 1000 nM | 100 to 250 nM | 0.1 to 100 nM | 0.1 to 100 nM
7 | COc1cc(-c2n[nH]c3cc(OC)c(O[C@H](C)c4c(C)cnnc4C)cc23)cc(C#N)n1 [Example 98, (R)-4-(5-(1-(3,5-dimethylpyridazin-4-yl)ethoxy)-6-methoxy-1H-indazol-3-yl)-6-methoxypicolinonitrile] | 100 to 250 nM | 100 to 250 nM | 100 to 250 nM | 0.1 to 100 nM
8 | Cc1cnnc(C)c1[C@@H](C)Oc1ccc2[nH]nc(-c3cc(C#N)cc(N4CC5(CN(C)C5)C4)c3)c2c1 [Example 87, 3-[5-[(1R)-1-(3,5-dimethylpyridazin-4-yl)ethoxy]-1H-indazol-3-yl]-5-(6-methyl-2,6-diazaspiro[3.3]heptan-2-yl)benzonitrile] | 250 to 1000 nM | > 1000 nM | 250 to 1000 nM | 250 to 1000 nM
9 | C[C@@H](Oc1ccc2[nH]nc(-c3cnc4c(c3)N(CCN(C)C)CCO4)c2c1)c1c(Cl)cncc1Cl [Example 51, 2-[7-[5-[(1R)-1-(3,5-dichloro-4-pyridyl)ethoxy]-1H-indazol-3-yl]-2,3-dihydro-pyrido[2,3-b][1,4]oxazin-1-yl]-N,N-dimethyl-ethanamine] | > 1000 nM | > 1000 nM | 250 to 1000 nM | 100 to 250 nM

Second part, the compound after the results:

Row | Kd (FGFR2) | Kd (FGFR1) | Kd (FGFR3) | Kd (FGFR4) | Structure (SMILES)
10 | 100 to 250 nM | 100 to 250 nM | 0.1 to 100 nM | 0.1 to 100 nM | Cc1cnnc(C)c1[C@@H](C)Oc1ccc2[nH]nc(-c3cnc(O[C@@H]4CCOC4)c(C#N)c3)c2c1 [Example 128, 5-(5-((R)-1-(3,5-dimethylpyridazin-4-yl)ethoxy)-1H-indazol-3-yl)-2-(((R)-tetrahydrofuran-3-yl)oxy)nicotinonitrile]
11 | > 1000 nM | > 1000 nM | > 1000 nM | 250 to 1000 nM | COc1ncc(-c2n[nH]c3ccc(O[C@H](C)c4c(Cl)cncc4Cl)cc23)cc1NCc1ccnc(C)c1 [Example 6, (R)-5-(5-(1-(3,5-Dichloropyridin-4-yl)ethoxy)-1H-indazol-3-yl)-2-methoxy-N-((2-methylpyridin-4-yl)methyl)pyridin-3-amine]
12 | 0.1 to 100 nM | 250 to 1000 nM | 0.1 to 100 nM | 0.1 to 100 nM | Cc1cnnc(C)c1[C@@H](C)Oc1ccc2[nH]nc(-c3cc(C#N)cc(C4CCOC4)c3)c2c1 (stereo partly drawn) [Example 90, 3-(5-((R)-1-(3,5-dimethylpyridazin-4-yl)ethoxy)-1H-indazol-3-yl)-5-(tetrahydrofuran-3-yl)benzonitrile]
13 | > 1000 nM | > 1000 nM | 250 to 1000 nM | 250 to 1000 nM | COc1ncc(-c2n[nH]c3ccc(O[C@H](C)c4c(Cl)cncc4Cl)cc23)cc1NCc1ccccn1 [Example 4, (R)-5-(5-(1-(3,5-Dichloropyridin-4-yl)ethoxy)-1H-indazol-3-yl)-2-methoxy-N-(pyridin-2-ylmethyl)pyridin-3-amine]
14 | > 1000 nM | > 1000 nM | > 1000 nM | 0.1 to 100 nM | CCS(=O)(=O)N1CCOc2ncc(-c3n[nH]c4ccc(O[C@H](C)c5c(Cl)cncc5Cl)cc34)cc21 [Example 144]
15 | 0.1 to 100 nM | 0.1 to 100 nM | 0.1 to 100 nM | 0.1 to 100 nM | C[C@@H](Oc1ccc2[nH]nc(-c3cnc(NC4CCOCC4)c(C#N)c3)c2c1)c1c(Cl)cncc1Cl [Example 132, (R)-5-(5-(1-(3,5-dichloropyridin-4-yl)ethoxy)-1H-indazol-3-yl)-2-((tetrahydro-2H-pyran-4-yl)amino)nicotinonitrile]
16 | > 1000 nM | 250 to 1000 nM | 250 to 1000 nM | 0.1 to 100 nM | Cc1cnnc(C)c1[C@@H](C)Oc1ccc2[nH]nc(-c3cc(C#N)cc(OC4CCOCC4)c3)c2c1 [Example 71, 3-[5-[(1R)-1-(3,5-dimethylpyridazin-4-yl)ethoxy]-1H-indazol-3-yl]-5-tetrahydropyran-4-yloxy-benzonitrile]
17 | 250 to 1000 nM | 250 to 1000 nM | 0.1 to 100 nM | 0.1 to 100 nM | C[C@@H](Oc1ccc2[nH]nc(-c3cnc4c(c3)N(C(=O)OCCCN(C)C)CCO4)c2c1)c1c(Cl)cncc1Cl [Example 43, 3-(dimethyl-amino)propyl 7-[5-[(1R)-1-(3,5-dichloro-4-pyridyl)ethoxy]-1H-indazol-3-yl]-2,3-dihydro-pyrido[2,3-b][1,4]oxazine-1-carboxylate]
18 | 0.1 to 100 nM | 0.1 to 100 nM | 0.1 to 100 nM | 0.1 to 100 nM | Cc1cc(-c2n[nH]c3ccc(O[C@H](C)c4c(C)cnnc4C)cc23)cc(C#N)c1OC1CCN(C2CCC2)CC1 [Example 120, (R)-2-((1-cyclobutylpiperidin-4-yl)oxy)-5-(5-(1-(3,5-dimethylpyridazin-4-yl)ethoxy)-1H-indazol-3-yl)-3-methylbenzonitrile]
19 | 0.1 to 100 nM | 0.1 to 100 nM | 0.1 to 100 nM | 0.1 to 100 nM | C[C@@H](Oc1ccc2[nH]nc(-c3ccc(OC4CC5(COC5)C4)nc3)c2c1)c1c(Cl)cncc1Cl [Example 161, (R)-3-(6-(2-oxaspiro[3.3]heptan-6-yloxy)pyridin-3-yl)-5-(1-(3,5-dichloropyridin-4-yl)ethoxy)-1H-indazole]
20 | 100 to 250 nM | 100 to 250 nM | 0.1 to 100 nM | 0.1 to 100 nM | COc1ncc(-c2n[nH]c3ccc(O[C@H](C)c4c(Cl)cncc4Cl)cc23)cc1N [Example 1, 5-[5-[(1R)-1-(3,5-dichloro-4-pyridyl)ethoxy]-1H-indazol-3-yl]-2-methoxy-pyridin-3-amine]
21 | 0.1 to 100 nM | 0.1 to 100 nM | 0.1 to 100 nM | 0.1 to 100 nM | Cc1cc(-c2n[nH]c3ccc(O[C@H](C)c4c(C)cnnc4C)cc23)cc(C#N)c1OC1CCN(C(C)C)CC1 [Example 110, (R)-5-(5-(1-(3,5-dimethylpyridazin-4-yl)ethoxy)-1H-indazol-3-yl)-2-((1-isopropylpiperidin-4-yl)oxy)-3-methylbenzonitrile]
